Experimental data: patent publication US12529022B2, “Human organ-on-chip models for predictive screening” (The Trustees of Columbia University in the City of New York, priority 2018, dated 2026)

Columns and labels:
Assay type in all cases: cell-based, human
[1] = system: ES model; assay: Immunohistochemical Ki67 staining and TUNEL assay of the ES model; details: ES model after linsitinib treatment
Source text: To assess apoptosis, paraffin embedded tissue sections were first deparaffinized with CitriSolv, rehydrated with graded series of ethanol washes, and then stained with a Click-iT® TUNEL Alexa Fluor® imaging assay (Thermo Fisher Scientific).

[2] = system: non-metastatic (U2-OS cell line derived) osteosarcoma OOC; assay: Non-metastatic osteosarcoma OOC, luciferase luminescence (cancer cell number and viability); details: 12 μM
Description: Drug treatment experiments recapitulating the patient treatment regimens and the patient plasma concentration of 12 μM of linsitinib were then carried out on the nonmetastatic and metastatic TE-ES and OS models. FIGS. 44 and 45 are graphs illustrating non-metastatic (U2-OS cell line derived, FIG. 44) and metastatic (KHOS/NP cell line derived, FIG. 45) osteosarcoma OOCs exposed to linsitinib (12 μM) according to the drug treatment regimen outlined. Luminescence as a function of cancer cell number and viability was measured (mean±s.e.m., n=6 for day 3, and n=3 for day 7 and 21, biologically independent per group). Significance was determined by unpaired two-tailed Student's t test of treatment group at specific day with respective control; *P<0.05; **P<0.01; ***P<0.001. Tissue engineered bone tumor models: Using an established protocol, expanded MSCs were seeded into the bone matrix scaffolds (4 mm×4 mm×1 mm) at a concentration of 10^6 cells per scaffold, using 40 μL of medium. The cells were allowed to attach for 2 hours, and then supplemented with additional mesenchymal stem cell medium overnight. The following day, osteogenic differentiation of the seeded cells was initiated by addition of low glucose DMEM supplemented with 1 μM dexamethasone (Sigma-Aldrich), 10 mM β-glycerophosphate (SigmaAldrich), and 50 μM L-ascorbic acid-2-phosphate (Sigma Aldrich). Each scaffold was incubated in 4 mL of osteogenic media, with media changes three times a week, for 3 weeks, allowing for the MSCs to differentiate into functional, maturing osteoblasts. Two weeks following the initiation of osteogenic differentiation, aggregates of tumor cells were prepared as described previously. Briefly, 0.3×10^6 cells were used to form ES aggregates and 0.5×10^6 cells were used to form OS aggregates. […] Cell viability: Cancer cell viability was measured for GFP-Luciferase labelled cancer cells using ONE-Glo luciferase substrate that was prepared according to manufacturer's protocol (Promega). […] Cardiac cell viability was assessed through the Pierce LDH Cytotoxicity Assay Kit (Thermo Fisher Scientific). […]

[3] = system: metastatic (SK-N-MC cell line derived) Ewing sarcoma OOC; assay: Metastatic Ewing sarcoma OOC, luciferase luminescence (cancer cell number and viability); details: 12 μM
Description: Drug treatment experiments recapitulating the patient treatment regimens and the patient plasma concentration of 12 μM of linsitinib were then carried out on the nonmetastatic and metastatic TE-ES and OS models. FIGS. 42 and 43 are graphs illustrating non-metastatic (RD-ES cell line derived, FIG. 42) and metastatic (SK-N-MC cell line derived, FIG. 43) Ewing sarcoma OOCs were exposed to linsitinib (12 μM) according to the drug treatment regimen. Luminescence as a function of cancer cell number and viability was measured (mean±s.e.m., n=6 for day 3, and n=3 for day 7 and 21, biologically independent per group). Significance was determined by unpaired two-tailed Student's t test of treatment group at specific day with respective control; *P<0.05; **P<0.01; ***P<0.001. Tissue engineered bone tumor models: Using an established protocol, expanded MSCs were seeded into the bone matrix scaffolds (4 mm×4 mm×1 mm) at a concentration of 10^6 cells per scaffold, using 40 μL of medium. The cells were allowed to attach for 2 hours, and then supplemented with additional mesenchymal stem cell medium overnight. The following day, osteogenic differentiation of the seeded cells was initiated by addition of low glucose DMEM supplemented with 1 μM dexamethasone (Sigma-Aldrich), 10 mM β-glycerophosphate (SigmaAldrich), and 50 μM L-ascorbic acid-2-phosphate (Sigma Aldrich). Each scaffold was incubated in 4 mL of osteogenic media, with media changes three times a week, for 3 weeks, allowing for the MSCs to differentiate into functional, maturing osteoblasts. Two weeks following the initiation of osteogenic differentiation, aggregates of tumor cells were prepared as described previously. Briefly, 0.3×10^6 cells were used to form ES aggregates and 0.5×10^6 cells were used to form OS aggregates. After 1 week of culture, the primary bone tumor aggregates were infused into the differentiated osteoblastseeded bone scaffolds (3 aggregates per scaffold, placed apart of each other). Tumor models were established for each of the two ES cell types (non-metastatic RD-ES, metastatic SK-NMC) and three OS cell types (non-metastatic U2-OS and Saos2, metastatic KHOS/NP). TE-RD-ES were cultured in the RPMI medium, TE-U-2 OS in DMEM, TE-Saos2 in McCoy's 5A, and TESK-N-MC and TE-KHOS/NP both in EMEM. Scaffolds without aggregates were used as healthy bone controls for each tumor model (termed TE-bone) and were cultured in the respective cancer cell line medium. All culture media were supplemented with 10% FBS and 1% penicillin/streptomycin. […] Tissues were randomly assigned to experimental groups. Medium was changed every day. Cardiac tissues were exposed to linsitinib for 3 days. The bone tumor models were exposed to a physiological treatment regimen consisted of cycles that involved 3 consecutive days of treatment followed by 4 days without drug, unless otherwise stated. Cell viability: Cancer cell viability was measured for GFP-Luciferase labelled cancer cells using ONE-Glo luciferase substrate that was prepared according to manufacturer's protocol (Promega). Samples were collected following 3, 7, and 21-day cycles of Linsitinib treatment. Cardiac cell viability was assessed through the Pierce LDH Cytotoxicity Assay Kit (Thermo Fisher Scientific). Samples were collected at 0 h, 1 h and 72 h.

[4] = system: non-metastatic (RD-ES cell line derived) Ewing sarcoma OOC; assay: Non-metastatic Ewing sarcoma OOC, luciferase luminescence (cancer cell number and viability); details: 12 μM
Description: Drug treatment experiments recapitulating the patient treatment regimens and the patient plasma concentration of 12 μM of linsitinib were then carried out on the nonmetastatic and metastatic TE-ES and OS models. FIGS. 42 and 43 are graphs illustrating non-metastatic (RD-ES cell line derived, FIG. 42) and metastatic (SK-N-MC cell line derived, FIG. 43) Ewing sarcoma OOCs were exposed to linsitinib (12 μM) according to the drug treatment regimen. Luminescence as a function of cancer cell number and viability was measured (mean±s.e.m., n=6 for day 3, and n=3 for day 7 and 21, biologically independent per group). Significance was determined by unpaired two-tailed Student's t test of treatment group at specific day with respective control; *P<0.05; **P<0.01; ***P<0.001. Tissue engineered bone tumor models: Using an established protocol, expanded MSCs were seeded into the bone matrix scaffolds (4 mm×4 mm×1 mm) at a concentration of 10^6 cells per scaffold, using 40 μL of medium. The cells were allowed to attach for 2 hours, and then supplemented with additional mesenchymal stem cell medium overnight. The following day, osteogenic differentiation of the seeded cells was initiated by addition of low glucose DMEM supplemented with 1 μM dexamethasone (Sigma-Aldrich), 10 mM β-glycerophosphate (SigmaAldrich), and 50 μM L-ascorbic acid-2-phosphate (Sigma Aldrich). Each scaffold was incubated in 4 mL of osteogenic media, with media changes three times a week, for 3 weeks, allowing for the MSCs to differentiate into functional, maturing osteoblasts. Two weeks following the initiation of osteogenic differentiation, aggregates of tumor cells were prepared as described previously. Briefly, 0.3×10^6 cells were used to form ES aggregates and 0.5×10^6 cells were used to form OS aggregates. After 1 week of culture, the primary bone tumor aggregates were infused into the differentiated osteoblastseeded bone scaffolds (3 aggregates per scaffold, placed apart of each other). Tumor models were established for each of the two ES cell types (non-metastatic RD-ES, metastatic SK-NMC) and three OS cell types (non-metastatic U2-OS and Saos2, metastatic KHOS/NP). TE-RD-ES were cultured in the RPMI medium, TE-U-2 OS in DMEM, TE-Saos2 in McCoy's 5A, and TESK-N-MC and TE-KHOS/NP both in EMEM. Scaffolds without aggregates were used as healthy bone controls for each tumor model (termed TE-bone) and were cultured in the respective cancer cell line medium. […] Cell viability: Cancer cell viability was measured for GFP-Luciferase labelled cancer cells using ONE-Glo luciferase substrate that was prepared according to manufacturer's protocol (Promega). […] Cardiac cell viability was assessed through the Pierce LDH Cytotoxicity Assay Kit (Thermo Fisher Scientific). […]

C[C@]1(O)C[C@@H](c2nc(-c3ccc4ccc(-c5ccccc5)nc4c3)c3c(N)nccn32)C1 [linsitinib, Linsitinib (OSI-906)]
apoptosis by TUNEL assay [1]: increases in apoptosis
proliferation via Ki67-staining [1]: reduced proliferation
course of treated cancer cell population ([2]; after 3 weeks): no longer expanding
luminescence (cancer cell number and viability) vs control ([2]; after 3 weeks of drug treatment): significant response
luminescence (cancer cell number and viability) vs control ([2]; after 3 days): no significant response
course of treated cancer cell population ([3]; 21-day treatment cycle): continued to expand throughout the 21-day treatment cycle
drug efficacy after day 3 ([3]; after 3 days): decrease in drug efficacy
luminescence (cancer cell number and viability) vs control ([3]; day 3): significant drug response
luminescence (cancer cell number and viability) vs control ([3]; day 7): significant responses
luminescence (cancer cell number and viability) vs control ([3]; day 21): significant responses
course of treated cancer cell population ([4]; 21-day treatment cycle): stopped expanding after the treatment
luminescence (cancer cell number and viability) vs control ([4]; day 3): significant drug response
luminescence (cancer cell number and viability) vs control ([4]; day 7): significant responses
luminescence (cancer cell number and viability) vs control ([4]; day 21): significant responses
